Data published in US20230263817A1, “HIGH DOSE NICOTINAMIDE ADENINE DINUCLEOTIDE (NAD) PRECURSOR REGIMENS FOR REDUCTION OF INFLAMMATION IN HUMAN PATIENTS WITH PREEXISTING INFLAMMATION” (University of Washington, priority 2021, published 2023).
Entries after “also recorded” stand apart in the source; their conditions may differ.

Legend:
[1] = test system: secreted IL6 protein of healthy PBMC; experiment: IL6 ELISA of supernatant of cultured healthy PBMCs; format: cell-based, human; conditions: 4-hour 1 mM NR in the presence of MitoDAMP
Experimental: IL6 ELISA. Isolated PBMCs (4×10^6 cells per sample) from healthy or HF participants were resuspended in RPMI medium containing 10% heat-inactivated FBS and treated with various proinflammatory triggers (Vehicle, MitoDAMP, LPS) and compounds (NR, MCC 950, MitoTempo, or LMT-28) to final PBMC concentrations of 10×10^6 cells per mL. See below for detailed descriptions of the reagents. The samples were incubated in Eppendorf tubes at 37° C. in a 5% CO2 incubator with caps open for times designated in the brief description of drawings. The cultured PBMC samples were centrifuged at 8,000 RPM at room temperature. The supernatant was used for ELISA per the manufacture protocol using R&D Systems human IL6 kit (Cat #DY206-05). The cell pellets were stored in −80° C.

[2] = test system: PBMC of Stage D HF subjects; experiment: PBMC basal and maximal OCR of Stage D HF patients pre- and post-oral NR; format: in vivo, human; conditions: oral NR 5-9 days, post vs pre
Experimental: For experiments associated with the oral NR administration (FIGS. 12C-12F), 5 hospitalized Stage D HF patients undergoing advanced heart failure therapy evaluations were put on escalating doses of NR (250 mg twice a day for Day 1, 500 mg twice a day for Day 2, and 1000 mg twice a day from Day 3 on) for 5-9 days. Fasting blood samples were obtained for PBMC isolation at baseline and post-NR administration. Subject 5 was withdrawn due to a change in clinical course deemed to be independent from NR administration. PBMC and Monocyte isolation. 30-60 ml of fasting blood was collected into EDTA-containing Vacutainers (BD Mfr #364606). Blood then was diluted (1:1) with RPMI medium (Corning; Cat #17-105-CV) and applied to Histopaque gradient medium (Sigma-Aldrich; Cat #10771) using SepMate-50 (STEMCELL Technologies), and centrifuged at 1200 g for 10 minutes. Top layer contained the enriched peripheral blood mononuclear cells (PBMCs) which were collected and followed by centrifugation at 300 g for 10 minutes. The pellet was resuspended with ACK lysis buffer (Gibco; Cat. A1049201) and incubated at room temperature for 5 minutes to remove residual red blood cells. […] When available, the remaining cells were used for cytokine mRNA quantitative PCR and in vitro assays. […] Oxygen consumption rate (OCR) of freshly isolated PBMCs was assessed using a Seahorse XFe24 analyzer (Agilent Technologies). […]

[3] = Randomized trial of NR in HFrEF: whole blood NR and NAD+ levels; format: in vivo, human
Experimental: At Week 0 (Randomization), participants underwent history, repeat 6MWD assessment and baseline transthoracic echocardiogram (FIG. 15). NR or matching placebo were started at the initial dose of 250 mg orally twice daily, then up-titrated by 250 mg twice daily each week to a final dose of 1000 mg twice daily by Week 3. Participants were continued on the 1000 mg twice daily dose until the final clinic visit on Week 12. Blood draws for study labs, including levels of NR and NAD were obtained at Weeks 0, 2, 4 and 12. Medications were dispensed at Weeks 0, 2, 4 and 8, with pill counts performed at Weeks 2, 4, 8 and 12. A telephone visit was performed at Week 6. The final echocardiogram and PBMC mitochondrial respiration assays were performed at Week 12. Study labs were performed by the UW Research Testing Service, except for NR and NAD+ assays, which were performed by the Pharmacokinetics Laboratory, Department of Pharmaceutics, UW School of Pharmacy. Procedures for blood collection and processing, as well as NR and NAD+ assay procedures, have been described previously (Airhart S E, et al., PLoS One. 2017, 12:e0186459).

Compound: NC(=O)c1ccc[n+]([C@@H]2O[C@H](CO)[C@@H](O)[C@H]2O)c1 [NR, nicotinamide riboside]
- IL6 secretion [1]: reduction
- PBMCs basal OCR [2]: consistent enhancement
- PBMCs maximal OCR [2]: consistent enhancement
- changes in whole blood NAD+ levels on-trial (Week 12-Week 0), Mean+SE ([3]; NR group): 30 ± 20 µM
- blood NAD+ levels during the up-titration period ([3]; NR group, Week 0 to Week 4, maintained through Week 12): dose-dependent increase
- whole blood NAD+ levels at 4 h post-dose vs pre-NR dose ([3]; Week 4 visit, 1000 mg NR dose): unchanged
- whole blood NR levels 4 h post-dose vs pre-dose ([3]; Week 4 visit, 1000 mg NR dose): tended to increase; also recorded: rose significantly
- whole blood NAD+ levels ([3]; clinically-stable HF patients, NR treatment): doubled
- concentration at 12 weeks ([3]; human, whole blood, oral, 1000 mg twice daily, NR group, read-out: on-trial changes in whole blood NR levels (Week 12-Week 0), Mean±SE): 2 nM
- blood NR level before the daily dose was administered ([3]; trough, throughout the study): low and variable
